Reference: patent publication US12077503B2, “Substituted cyclic amides and their use as herbicides” (FMC CORPORATION, priority 2015, dated 2024)

How the values were obtained:
Format in all cases: in vivo
[1] = test system: ducksalad (Heteranthera limosa); experiment: Test B flooded paddy test; settings: Flood, 250 g ai/ha; 0 to 100 scale where 0 is no effect and 100 is complete control; 13 to 15 d
Procedure, shortened: (§1)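 Greenhouse paddy pots with 2-leaf stage plants received compound by direct addition to floodwater 3 cm deep, kept at that level. Scored visually at 13–15 d versus controls (0 no effect; 100 complete control).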

[2] = test system: sedge, umbrella (small-flower umbrella sedge, Cyperus difformis); experiment: Test B flooded paddy test; settings: Flood, 250 g ai/ha; 0 to 100 scale where 0 is no effect and 100 is complete control; 13 to 15 d
Procedure, shortened: as §1

[3] = test system: barnyardgrass (Echinochloa crus-galli); experiment: Test B flooded paddy test; settings: Flood, 250 g ai/ha; 0 to 100 scale where 0 is no effect and 100 is complete control; 13 to 15 d
Procedure, shortened: as §1

rice (Oryra sativa) = experiment: Test B flooded paddy test; settings: Flood, 250 g ai/ha; 0 to 100 scale where 0 is no effect and 100 is complete control; 13 to 15 d
Procedure, shortened: as §1

[4] = test system: ryegrass, Italian (Italian ryegrass, Lolium multiflorum); experiment: Test A postemergence; settings: postemergence, 0 to 100 scale (0 no effect, 100 complete control)
Procedure, shortened: (§2)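 Preemergence directed soil spray on seeded pots, or postemergence application to plants 2–10 cm, one- to two-leaf. Solvent mixture non-phytotoxic, with surfactant. Scored ~10 d later, visually, 0–100 vs untreated.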

corn (Zea mays) = experiment: Test A postemergence; settings: postemergence, 0 to 100 scale (0 no effect, 100 complete control)
Procedure, shortened: as §2

[5] = test system: giant foxtail (Setaria faberii); experiment: Test A postemergence; settings: postemergence, 0 to 100 scale (0 no effect, 100 complete control)
Procedure, shortened: as §2

[6] = test system: blackgrass (Alopecurus myosuroides); experiment: Test A postemergence; settings: postemergence, 0 to 100 scale (0 no effect, 100 complete control)
Procedure, shortened: as §2

Kochia (Kochia scoparia) [7] = experiment: Test A postemergence; settings: postemergence, 0 to 100 scale (0 no effect, 100 complete control)
Procedure, shortened: as §2

[8] = test system: Galium (catchweed bedstraw, Galium aparine); experiment: Test A postemergence; settings: postemergence, 0 to 100 scale (0 no effect, 100 complete control)
Procedure, shortened: as §2

[9] = test system: wheat (Triticum aestivum); experiment: Test A postemergence; settings: postemergence, 0 to 100 scale (0 no effect, 100 complete control)
Procedure, shortened: as §2

[10] = test system: barnyardgrass (Echinochloa crus-galli); experiment: Test A postemergence; settings: postemergence, 0 to 100 scale (0 no effect, 100 complete control)
Procedure, shortened: as §2

[11] = test system: pigweed (Amaranthus retroflexus); experiment: Test A postemergence; settings: postemergence, 0 to 100 scale (0 no effect, 100 complete control)
Procedure, shortened: as §2

[12] = test system: ragweed (common ragweed, Ambrosia elatior); experiment: Test A postemergence; settings: postemergence, 0 to 100 scale (0 no effect, 100 complete control)
Procedure, shortened: as §2

[13] = test system: ryegrass, Italian (Italian ryegrass, Lolium multiflorum); experiment: Test A preemergence
Procedure, shortened: as §2

[14] = test system: giant foxtail (Setaria faberii); experiment: Test A preemergence
Procedure, shortened: as §2

Kochia (Kochia scoparia) [15] = experiment: Test A preemergence
Procedure, shortened: as §2

[16] = test system: barnyardgrass (Echinochloa crus-galli); experiment: Test A preemergence
Procedure, shortened: as §2

[17] = test system: pigweed (Amaranthus retroflexus); experiment: Test A preemergence
[18] = test system: ragweed (common ragweed, Ambrosia elatior); experiment: Test A preemergence
Procedure, shortened: as §2

[19] = 125 g ai/ha, visual rating after approx. 10 d
[20] = 500 g ai/ha, visual injury, approx. 10 d
[21] = 125 g ai/ha, Preemergence, visual injury after approximately 10 d, 0 to 100 scale where 0 is no effect and 100 is complete control
[22] = 500 g ai/ha, preemergence, 0 to 100 scale, 0 = no effect, 100 = complete control

**Q.** `CN1CC(c2cc(F)cc(F)c2)C(C(=O)Nc2cccc(F)c2F)C1=O` (stereo not drawn) [Compound 644] was tested. Which “Plant response rating, Ducksalad” value [1] did it give?
**A.** The value was 98.

**Q.** And the “Plant response rating, Sedge, Umbrella” value [2]?
**A.** Its value is 0.

**Q.** And the “Plant response rating, Barnyardgrass” value [3]?
**A.** The value was 85.

**Q.** What about the “Plant response rating, Rice” value (rice (Oryra sativa)) of the same molecule?
**A.** Its value is 15.

**Q.** What about the “Plant response rating, Ryegrass, Italian” value [4, 19] of the same molecule?
**A.** The value was 50.

**Q.** What about the “Plant response rating, Ryegrass, Italian” value [4, 20] of the same molecule?
**A.** The value was 80.

**Q.** And the “Plant response rating, Corn” value (corn (Zea mays); [19])?
**A.** Its value is 70.

**Q.** And the “Plant response rating, Corn” value (corn (Zea mays); [20])?
**A.** Its value is 80.

**Q.** What about the “Plant response rating, Foxtail, Giant” value [5, 19] of the same molecule?
**A.** The value was 90.

**Q.** What about the “Plant response rating, Foxtail, Giant” value [5, 20] of the same molecule?
**A.** Its value is 90.

**Q.** What about the “Plant response rating, Blackgrass” value [6, 19] of the same molecule?
**A.** The value was 60.

**Q.** What about the “Plant response rating, Blackgrass” value [6, 20] of the same molecule?
**A.** The value was 70.

**Q.** What about the “Plant response rating, Kochia” value (Kochia (Kochia scoparia) [7]; [19]) of the same molecule?
**A.** The value was 20.

**Q.** And the “Plant response rating, Kochia” value (Kochia (Kochia scoparia) [7]; [20])?
**A.** The value was 70.

**Q.** And the “Plant response rating, Galium” value [8, 19]?
**A.** The value was 50.

**Q.** What about the “Plant response rating, Galium” value [8, 20] of the same molecule?
**A.** The value was 60.

**Q.** And the “Plant response rating, Wheat” value [9, 19]?
**A.** The value was 50.

**Q.** And the “Plant response rating, Wheat” value [9, 20]?
**A.** The value was 80.

**Q.** What about the “Plant response rating, Barnyardgrass” value [10, 19] of the same molecule?
**A.** Its value is 90.

**Q.** And the “Plant response rating, Barnyardgrass” value [10, 20]?
**A.** Its value is 90.

**Q.** What about the “Plant response rating, Pigweed” value [11, 19] of the same molecule?
**A.** Its value is 20.

**Q.** What about the “Plant response rating, Pigweed” value [11, 20] of the same molecule?
**A.** The value was 30.

**Q.** What about the “Plant response rating, Ragweed” value [12, 19] of the same molecule?
**A.** The value was 0.

**Q.** And the “Plant response rating, Ragweed” value [12, 20]?
**A.** The value was 40.

**Q.** And the “Plant response rating, Ryegrass, Italian” value [13, 21]?
**A.** The value was 60.

**Q.** What about the “Plant response rating, Ryegrass, Italian” value [13, 22] of the same molecule?
**A.** Its value is 90.

**Q.** And the “Plant response rating, Foxtail, Giant” value [14, 21]?
**A.** The value was 90.

**Q.** What about the “Plant response rating, Foxtail, Giant” value [14, 22] of the same molecule?
**A.** Its value is 90.

**Q.** And the “Plant response rating, Kochia” value (Kochia (Kochia scoparia) [15]; [21])?
**A.** Its value is 50.

**Q.** What about the “Plant response rating, Kochia” value (Kochia (Kochia scoparia) [15]; [22]) of the same molecule?
**A.** Its value is 80.

**Q.** And the “Plant response rating, Barnyardgrass” value [16, 21]?
**A.** Its value is 90.

**Q.** And the “Plant response rating, Barnyardgrass” value [16, 22]?
**A.** The value was 90.

**Q.** And the “Plant response rating, Pigweed” value [17, 21]?
**A.** The value was 60.

**Q.** What about the “Plant response rating, Pigweed” value [17, 22] of the same molecule?
**A.** Its value is 70.

**Q.** What about the “Plant response rating, Ragweed” value [18, 21] of the same molecule?
**A.** The value was 50.

**Q.** And the “Plant response rating, Ragweed” value [18, 22]?
**A.** The value was 60.
